According to patent US20260185979A1, “APPARATUSES AND METHODS FOR ANALYZING LIVE CELLS” (AGILENT TECHNOLOGIES, INC., priority 2022, published 2026):
Entries after “also recorded” stand apart in the source; their conditions may differ.

Assays:
A431-red target cells = experiment: ECM invasion and cytotoxicity assay: EpCAM-CAR-T cells over matrigel layered on A431-red cells (impedance and imaging); assay type: cell-based, human; conditions: for percent cytolysis (CAR-T killing): matrigel
Experimental: (§1) Briefly, matrigel (6 mg/ml) was layered (50 μL/ell) over A431-red target tumor cells expressing nuclear-localized mKate2 (red fluorescent protein). After 2 h, epithelial cell adhesion molecule (EpCAM)-CAR-T cells were seeded over the matrigel layer. Tumor cell growth and CAR-T cytotoxicity were determined from real-time impedance and live cell imaging data collected on the XCELLIGENCE RTCA ESIGHT® imaging and sensing system. Pemigatinib (1 μM, 5 μM and 10 μM), an inhibitor of FGFR isoforms 1-3, sold under the brand name Pemazyre was used to evaluate the role of FGFR signaling. Percent cytolysis was calculated from normalized cell impedance and imaging (red fluorescence) data using the formula [(1−(treated/control)*100].
(§2) The ability of EpCAM-CAR-T cells to invade the matrigel and kill A431-red target cells was evaluated using impedance and imaging readouts on an XCELLIGENCE RTCA ESIGHT® imaging and sensing system. The background impedance signal was measured with 50 μL of c-DMEM media in the wells of E-plate VIEW microplate (Agilent Technologies, Cat#0030060101030). Cell suspension of A 431-red cells was prepared in c-DMEM at desired cell numbers to be aliquot at 100 μL/well. After the addition of tumor cells, the E-plate was allowed to rest at room temperature for 30 min to facilitate an even distribution at the bottom. […] Impedance was read every 15 minutes and images were taken every 60 minutes. Images from four fields of view were acquired for each well in brightfield and red fluorescence channel. […]
(§3) The software generates a real-time plot of impedance data with time (X-axis) and Cell Index (CI, Y-axis). […] Normalized Cell Index (NCI(t)) was calculated by dividing the CI at time t (CI(t)) with CI at normalization time point (CI(tnormalization)). […] Percent cytolysis was calculated from NCI (impedance) using the formula [(1−(CAR-T treated/Pemigatinib treated)*100]. Percent cytolysis was calculated from red object counts/well (imaging) using the formula [(1−(CAR-T treated/Pemigatinib treated)*100].

A431 cells [1] = experiment: A431 cell proliferation, normalized cell index over time; assay type: cell-based, human
Experimental: as §1
as §2, with “μL/well.” for “μL/well. After the addition of tumor cells, the E-plate was allowed to rest at room temperature for 30 min to facilitate an even distribution at the bottom.”

A431 cells [2] = experiment: EpCAM-CAR-T cytotoxicity assay, A431 cells cultured in DMEM media (no matrigel); assay type: cell-based, human; conditions: Pemigatinib 5 μM and 10 μM, E:T 3.5, DMEM media
Experimental: as §1, with “[…] […]” for “Briefly, matrigel (6 mg/ml) was layered (50 μL/ell) over A431-red target tumor cells expressing nuclear-localized mKate2 (red fluorescent protein). After 2 h, epithelial cell adhesion molecule (EpCAM)-CAR-T cells were seeded over the matrigel layer.”
[…] The background impedance signal was measured with 50 μL of c-DMEM media in the wells of E-plate VIEW microplate (Agilent Technologies, Cat#0030060101030). […] Impedance was read every 15 minutes and images were taken every 60 minutes. Images from four fields of view were acquired for each well in brightfield and red fluorescence channel. […]
as §3

NK-92 invasion = conditions: transmigration assays; cited from earlier work
MCF-7-red target cells = experiment: ECM invasion and cytotoxicity assay: NK-92 cells over matrigel layered on MCF-7-red cells (impedance and live cell imaging, xCELLigence RTCA eSight); assay type: cell-based, human; conditions: for killing of target cells by NK-92 (drop in impedance): MMP inhibitor 2 μM and 10 μM in matrigel and media
Experimental: An exemplary protocol is described as follows. Briefly, varying volumes of matrigel (50-110 microliters (μL)/well; 6 milligrams (mg)/millilter (mL)) representing increasing distance for invasion is layered over MCF-7 (available from American Type Culture Collection (ATCC)) human breast adenocarcinoma cells stably expressing nuclear-localized red fluorescent protein (MCF-7). NK-92 cells (available from Creative Bioarray, ATCC) are added over the solidified matrigel layer at E:T of 3:1. eLive Green (available from Agilent Technologies, shown in green) is added at 1 μL/mL. A broad spectrum MMP inhibitor (such as GM6001, available from Selleck Chemicals) is used to evaluate the role of matrix metalloproteinases (MMPs).
The ability of NK-92 cells to invade the matrigel and kill the MCF-7-red target cells was evaluated by concurrent impedance and imaging readouts on an XCELLIGENCE RTCA ESIGHT® imaging and sensing system (available from Agilent Tech., Inc.). Background impedance signal was measured with 50 μL of EMEM media in the wells of E-plate VIEW microplate (available from Agilent Technologies, Cat#0030060101030). MCF-7-red target cells (30,000 in 100 μL) were added to each well. The plate was placed at room temperature for thiry minutes to facilitate an even distribution of cells at the bottom. […] Impedance readings were collected every fifteen minutes, and photos were taken every sixty minutes. Images from four fields of view were acquired in each well in brightfield, red, and green fluorescence channels. […] Percent cytolysis was calculated from normalized cell impedance readings at seventy-two hours using the formula: [(1−(treated/untreated)*100]. […]
The ability of NK-92 cells to invade the matrigel and kill the MCF7-red target cells was evaluated by concurrent impedance and imaging readouts on an XCELLIGENCE RTCA ESIGHT® imaging and sensing system as outlined in FIG. 6A. Background impedance signal was measured with 50 μL of EMEM media in the wells of E-plate VIEW microplate. […]

| Structure (SMILES) | percent cytolysis (CAR-T killing) (A431-red target cells; 5 μM Pemigatinib with EpCAM-CAR-T) [%] | percent cytolysis (CAR-T killing) (A431-red target cells; 10 μM Pemigatinib with EpCAM-CAR-T) [%] | elimination of A431 cells in invasion assays (A431-red target cells; E:T=20:1 and 1 μM Pemigatinib) | proliferation of A431 cells (normalized cell index) (A431 cells [1]; in the presence of matrigel, 1, 5 and 10 μM tested) | proliferation of A431 cells (normalized cell index) (A431 cells [1]; native DMEM media, no matrigel) | A431 cytolysis by EpCAM-CAR-T cells in the presence of Pemigatinib (A431 cells [2]) | NK-92 invasion in matrigel in the presence of MMP inhibitor (NK-92 invasion) | target cell killing by GFP-NK92 cells (percent cytolysis from normalized impedance and red fluorescence imaging) (MCF-7-red target cells; 2 μM and 10 μM) | killing of target cells by NK-92 (drop in impedance) (MCF-7-red target cells) | killing of target cells by NK-92 (drop in impedance) (MCF-7-red target cells; listed as Ilomostat) |
| --- | --- | --- | --- | --- | --- | --- | --- | --- | --- | --- |
| CCN1C(=O)N(c2c(F)c(OC)cc(OC)c2F)Cc2cnc3[nH]c(CN4CCOCC4)cc3c21 [Pemigatinib] | ~20 | −40 | Complete elimination | reduces the proliferation of A431 cells in the presence of matrigel in a concentration-dependent manner; also recorded: reduced the proliferation of A431 cells with increasing concentrations tested | slows the proliferation of A431 cells in native DMEM media in a concentration dependent manner | accelerated |  |  |  |  |
| CNC(=O)[C@H](Cc1c[nH]c2ccccc12)NC(=O)[C@@H](CC(=O)NO)CC(C)C [GM6001, Ilomostat] |  |  |  |  |  |  | reduced | delayed and reduced target cell killing | delayed but not abrogated | delayed the killing of target cells |
